# Experimental data from patent US11702404B2, “GLP-1R modulating compounds” (priority 2019, dated 2023).
# How the values were obtained:
# [1] = Microsomal stability, human liver microsomes (predicted hepatic clearance); settings: predicted from in vitro microsomal stability data
# [2] = biological target: GLP-1R (Homo sapiens, UniProt P43220); assay: GLP-1R activation: cAMP increase in CHO cells stably expressing GLP-1R; type: cell-based; settings: cAMP increase, CHO cells stably expressing GLP-1R, 10 point dose response, 30 minutes incubation; read-out: EC50
# Chain of GLP-1R (P43220 24-463): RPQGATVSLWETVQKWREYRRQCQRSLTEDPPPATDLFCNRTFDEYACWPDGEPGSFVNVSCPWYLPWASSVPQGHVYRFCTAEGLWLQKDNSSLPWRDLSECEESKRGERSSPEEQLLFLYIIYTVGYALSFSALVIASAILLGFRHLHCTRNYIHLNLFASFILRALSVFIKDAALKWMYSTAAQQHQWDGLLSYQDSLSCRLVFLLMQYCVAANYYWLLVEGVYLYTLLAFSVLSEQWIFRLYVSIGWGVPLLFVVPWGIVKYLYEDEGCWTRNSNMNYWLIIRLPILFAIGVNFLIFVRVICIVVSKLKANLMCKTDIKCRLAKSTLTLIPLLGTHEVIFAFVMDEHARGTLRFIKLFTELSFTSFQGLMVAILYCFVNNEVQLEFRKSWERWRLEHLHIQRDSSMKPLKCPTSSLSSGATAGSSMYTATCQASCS
Compound,Predicted Hepatic Clearance (Pred. Cl.) [1],EC50 [2]
"COCCn1c(Cc2c(F)cc(-c3cccnc3OCc3ccccc3)cc2F)nc2ccc(C(=O)O)cc21 [Example 186, 2-(4-(2-(benzyloxy)pyridin-3-yl)-2,6-difluorobenzyl)-1-(2-methoxyethyl)-1H-benzo[d]imidazole-carboxylic acid]",0.69 L/h/kg,812 nM
N#Cc1ccc(COc2cccc(-c3cc(F)c(Cc4nc5ccc(C(=O)O)cc5n4CC45CC(CCO4)C5)cc3F)n2)c(F)c1 [Example 623],0.64 L/h/kg,4.04 nM
"N#Cc1ccc(COc2cccc(-c3ccc(Cc4nc5c(F)cc(C(=O)O)cc5n4CC4(C#N)CC4)c(F)c3)n2)c(F)c1 [Example 315, 2-(4-(6-((4-cyano-2-fluorobenzyl)oxy)pyridin-2-yl)-2-fluorobenzyl)-1-((l-cyanocyclopropyl)methyl)-4-fluoro-1H-benzo[d]imidazole-6-carboxylic acid]",0.34 L/h/kg,2.08 nM
"COC(CNC(C)=O)Cn1c(Cc2ccc(-c3cccc(OCc4ccc(C#N)cc4F)n3)cc2F)nc2ccc(C(=O)O)cc21 (single isomer, unassigned) [Example 341, 1-(3-acetamido-2-methoxypropyl)-2-(4-(6-((4-cyano-2-fluorobenzyl)oxy)pyridin-2-yl)-2-fluorobenzyl)-1H-benzo[d]imidazole-6-carboxylic acid]",0.34 L/h/kg,19.7 nM
"N#Cc1ccc(COc2cccc(-c3ccc(Cc4nc5ccc(C(=O)O)cc5n4CC4CC4)c(F)c3)n2)c(F)c1 [Example 389, 2-(4-(6-((4-cyano-2-fluorobenzyl)oxy)pyridin-2-yl)-2-fluorobenzyl)-1-(cyclopropylmethyl)-1H-benzo[d]imidazole-6-carboxylic acid]",<0.11 L/h/kg,26.6 nM
"N#Cc1ccc(COc2cccc(-c3ccc(Cc4nc5ccc(C(=O)O)cc5n4CC4(Br)CC4)c(F)c3)n2)c(F)c1 [Example 289, 1-((1-bromocyclopropyl)methyl)-2-(4-(6-((4-cyano-2-fluorobenzyl)oxy)pyridin-2-yl)-2-fluorobenzyl)-1H-benzo[d]imidazole-6-carboxylic acid]",0.115 L/h/kg,3.02 nM
"N#Cc1ccc(COc2cccc(-c3cc(F)c(Cc4nc5ccc(C(=O)O)cc5n4Cc4ccccn4)cc3F)n2)c(F)c1 [Example 311, 2-(4-(6-((4-cyano-2-fluorobenzyl)oxy)pyridin-2-yl)-2,5-difluorobenzyl)-1-(pyridin-2-ylmethyl)-1H-benzo[d]imidazole-6-carboxylic acid]",0.42 L/h/kg,95.6 nM
COCC1(Cn2c(Cc3cc(F)c(-c4cccc(OCc5ccc(C#N)cc5F)n4)cc3F)nc3ccc(C(=O)O)cc32)CCCO1 (centres unmarked) [Example 652],0.48 L/h/kg,8.79 nM
"N#Cc1ccc(COc2cccc(-c3ccc(Cc4nc5ccc(C(=O)O)cc5n4CCCO)c(F)c3)n2)c(F)c1 [Example 392, 2-(4-(6-((4-cyano-2-fluorobenzyl)oxy)pyridin-2-yl)-2-fluorobenzyl)-1-(3-hydroxypropyl)-1H-benzo[d]imidazole-6-carboxylic acid]",0.19 L/h/kg,14.5 nM
COCCn1c(Cc2cc(F)c(-c3cccc(OCc4ccc(C(F)F)cc4)n3)cc2F)nc2ccc(C(=O)O)cc21 [Example 809],0.17 L/h/kg,1.05 nM
"N#Cc1ccc(COc2cccc(-c3ccc(Cc4nc5ccc(C(=O)O)cc5n4Cc4cnco4)c(F)c3)n2)c(F)c1 [Example 402, 2-(4-(6-((4-cyano-2-fluorobenzyl)oxy)pyridin-2-yl)-2-fluorobenzyl)-1-(oxazol-5-ylmethyl)-1H-benzo[d]imidazole-6-carboxylic acid]",0.7 L/h/kg,2.11 nM
COC(=O)N1CC(Cn2c(Cc3cc(F)c(-c4cccc(OCc5ccc(C#N)cc5F)n4)cc3F)nc3ccc(C(=O)O)cc32)(OC)C1 [Example 824],0.46 L/h/kg,197 nM
"N#Cc1ccc(COc2cccc(-c3ccc(Cc4nc5ccc(C(=O)O)cc5n4C[C@H]4CCOC4)c(F)c3)n2)c(F)c1 [Example 196, (R)-2-(4-(6-((4-cyano-2-fluorobenzyl)oxy)pyridin-2-yl)-2-fluorobenzyl)-1-((tetrahydrofuran-3-yl)methyl)-1H-benzo[d]imidazole-carboxylic acid]",0.35 L/h/kg,4.61 nM
O=C(O)c1cc(F)c2nc(Cc3cc(F)c(-c4cccc(OCc5ccc(C(F)(F)F)cc5F)n4)cc3F)n(Cc3ncco3)c2c1 [Example 783],0.11 L/h/kg,0.11 nM
"COCCn1c(Cc2ccc(-c3cccc(NC(=O)c4ccc(C#N)cc4F)n3)cc2F)nc2ccc(C(=O)O)cc21 [Example 113, 2-(4-(6-(4-cyano-2-fluorobenzamido)pyridin-2-yl)-2-fluorobenzyl)-1-(2-methoxyethyl)-1H-benzo[d]imidazole-6-carboxylic acid]",0.59 L/h/kg,2150 nM
"COCCn1c(Cc2ccc(-c3cccc(OCc4ccc(Cl)cc4OCC(F)(F)F)n3)cc2F)nc2ccc(C(=O)O)cc21 [Example 267, 2-(4-(6-((4-chloro-2-(2,2,2-trifluoroethoxy)benzyl)oxy)pyridin-2-yl)-2-fluorobenzyl)-1-(2-methoxyethyl)-1H-benzo[d]imidazole-6-carboxylic acid]",0.275 L/h/kg,172 nM
"COCCn1c(Cc2c(F)cc(-c3csnc3OCc3ccc(Cl)cc3F)cc2F)nc2ccc(C(=O)O)cc21 [Example 72, 2-(4-(3-((4-chloro-2-fluorobenzyl)oxy)isothiazol-4-yl)-2,6-difluorobenzyl)-1-(2-methoxyethyl)-1H-benzo[d]imidazole-6-carboxylic acid]",0.74 L/h/kg,23.8 nM
COCCn1c(Cc2cc(F)c(-c3cccc(OCc4cccc(Br)c4)n3)cc2F)nc2ccc(C(=O)O)cc21 [Example 876],0.11 L/h/kg,27.6 nM
"N#Cc1ccc(COc2cccc(-c3ccc(Cc4nc5ccc(C(=O)O)cc5n4CC4(CF)CC4)c(F)c3)n2)c(F)c1 [Example 10, 2-(4-(6-((4-cyano-2-fluorobenzyl)oxy)pyridin-2-yl)-2-fluorobenzyl)-1-((1-(fluoromethyl)cyclopropyl)methyl)-1H-benzo[d]imidazole-6-carboxylic acid]",0.17 L/h/kg,0.57 nM
"COCCn1c(Cc2ccc(-c3cccnc3OCc3ccc(C#N)cc3F)c(F)c2)nc2ccc(C(=O)O)cc21 [Example 108, 2-(4-(2-((4-cyano-2-fluorobenzyl)oxy)pyridin-3-yl)-3-fluorobenzyl)-1-(2-methoxyethyl)-1H-benzo[d]imidazole-6-carboxylic acid]",0.26 L/h/kg,388 nM
"COCCn1c(Cn2cc(-c3cccc(OCc4ccc(C#N)cc4F)n3)cn2)nc2ccc(C(=O)O)cc21 [Example 282, 2-((4-(6-((4-cyano-2-fluorobenzyl)oxy)pyridin-2-yl)-1H-pyrazol-1-yl)methyl)-1-(2-methoxyethyl)-1H-benzo[d]imidazole-6-carboxylic acid]",0.49 L/h/kg,
